Measured values from ChEMBL document CHEMBL2413072, “Synthesis and in vitro anticancer studies of novel C-2 arylidene congeners of lantadenes” (2013).

What was measured:
Format in all cases: functional
HCT-15 = experiment: Growth inhibition of human HCT15 cells assessed as cell growth at 10^-6 M by sulforhodamine B assay; settings: read-out: Activity
IGROV-1 = experiment: Growth inhibition of human IGROV1 cells by sulforhodamine B assay
SF-295 = experiment: Growth inhibition of human SF295 cells assessed as cell growth at 10^-6 M by sulforhodamine B assay; settings: read-out: Activity
NCI-H226 = experiment: Growth inhibition of human NCI-H226 cells assessed as cell growth at 10^-7 M by sulforhodamine B assay; settings: read-out: Activity
786-0 [1] = experiment: Growth inhibition of human 786-0 cells assessed as cell growth at 10^-8 M by sulforhodamine B assay; settings: read-out: Activity
Malme-3M = experiment: Growth inhibition of human MALME-3M cells assessed as cell growth at 10^-7 M by sulforhodamine B assay; settings: read-out: Activity
UO-31 [2] = experiment: Growth inhibition of human UO31 cells assessed as cell growth at 10^-6 M by sulforhodamine B assay; settings: read-out: Activity
SR = experiment: Growth inhibition of human SR cells by sulforhodamine B assay
SF-268 = experiment: Growth inhibition of human SF268 cells assessed as cell growth at 10^-7 M by sulforhodamine B assay; settings: read-out: Activity
SK-OV-3 = experiment: Growth inhibition of human SKOV3 cells assessed as cell growth at 10^-7 M by sulforhodamine B assay; settings: read-out: Activity
OVCAR-5 = experiment: Growth inhibition of human OVCAR5 cells assessed as cell growth at 10^-8 M by sulforhodamine B assay; settings: read-out: Activity
UO-31 [3] = experiment: Growth inhibition of human UO31 cells assessed as cell growth at 10^-8 M by sulforhodamine B assay; settings: read-out: Activity
PC-3 [4] = experiment: Growth inhibition of human PC3 cells assessed as cell growth at 10^-7 M by sulforhodamine B assay; settings: read-out: Activity
MDA-MB-231 [5] = experiment: Growth inhibition of human MDA-MB-231 cells assessed as cell growth at 10^-8 M by sulforhodamine B assay; settings: read-out: Activity
[6] = Growth inhibition of human NCI-ADR-RES cells assessed as cell growth at 10^-4 M by sulforhodamine B assay; settings: read-out: Activity
U-251 [7] = experiment: Growth inhibition of human U251 cells by sulforhodamine B assay
K562 [8] = experiment: Growth inhibition of human K562 cells assessed as cell growth at 10^-7 M by sulforhodamine B assay; settings: read-out: Activity
PC-3 [9] = experiment: Growth inhibition of human PC3 cells by sulforhodamine B assay
K562 [10] = experiment: Growth inhibition of human K562 cells assessed as cell growth at 10^-6 M by sulforhodamine B assay; settings: read-out: Activity
[11] = Growth inhibition of human HCC2998 cells assessed as cell growth at 10^-8 M by sulforhodamine B assay; settings: HCC 2998, read-out: Activity
SF-539 = experiment: Growth inhibition of human SF539 cells assessed as cell growth at 10^-7 M by sulforhodamine B assay; settings: read-out: Activity
A498 = experiment: Growth inhibition of human A498 cells assessed as cell growth at 10^-4 M by sulforhodamine B assay; settings: read-out: Activity
[12] = Growth inhibition of human NCI-ADR-RES cells assessed as cell growth at 10^-8 M by sulforhodamine B assay; settings: read-out: Activity
MDA-MB-468 = experiment: Growth inhibition of human MDA-MB-468 cells assessed as cell growth at 10^-8 M by sulforhodamine B assay; settings: read-out: Activity
MOLT-4 = experiment: Growth inhibition of human MOLT4 cells assessed as cell growth at 10^-7 M by sulforhodamine B assay; settings: read-out: Activity
OVCAR-8 = experiment: Growth inhibition of human OVCAR8 cells assessed as cell growth at 10^-4 M by sulforhodamine B assay; settings: read-out: Activity
U-251 [13] = experiment: Growth inhibition of human U251 cells assessed as cell growth at 10^-6 M by sulforhodamine B assay; settings: read-out: Activity
OVCAR-3 = experiment: Growth inhibition of human OVCAR3 cells assessed as cell growth at 10^-4 M by sulforhodamine B assay; settings: read-out: Activity
HOP-92 = experiment: Growth inhibition of human HOP92 cells assessed as cell growth at 10^-6 M by sulforhodamine B assay; settings: read-out: Activity
SW-620 = experiment: Growth inhibition of human SW620 cells assessed as cell growth at 10^-6 M by sulforhodamine B assay; settings: read-out: Activity
NCI-H522 [14] = experiment: Growth inhibition of human NCI-H522 cells assessed as cell growth at 10^-6 M by sulforhodamine B assay; settings: read-out: Activity
NCI-H322M [15] = experiment: Growth inhibition of human NCI-H322M cells assessed as cell growth at 10^-7 M by sulforhodamine B assay; settings: read-out: Activity
RXF 393 = experiment: Growth inhibition of human RXF393 cells assessed as cell growth at 10^-7 M by sulforhodamine B assay; settings: read-out: Activity
786-0 [16] = experiment: Growth inhibition of human 786-0 cells assessed as cell growth at 10^-6 M by sulforhodamine B assay; settings: read-out: Activity
MCF7 = experiment: Growth inhibition of human MCF7 cells assessed as cell growth at 10^-6 M by sulforhodamine B assay; settings: read-out: Activity
HCT-116 = experiment: Growth inhibition of human HCT116 cells assessed as cell growth at 10^-8 M by sulforhodamine B assay; settings: read-out: Activity
DU-145 = experiment: Growth inhibition of human DU145 cells assessed as cell growth at 10^-6 M by sulforhodamine B assay; settings: read-out: Activity
NCI-H322M [17] = experiment: Growth inhibition of human NCI-H322M cells assessed as cell growth at 10^-6 M by sulforhodamine B assay; settings: read-out: Activity
NCI-H522 [18] = experiment: Growth inhibition of human NCI-H522 cells assessed as cell growth at 10^-8 M by sulforhodamine B assay; settings: read-out: Activity
T47D = experiment: Growth inhibition of human T47D cells assessed as cell growth at 10^-7 M by sulforhodamine B assay; settings: read-out: Activity
786-0 [19] = experiment: Growth inhibition of human 786-0 cells by sulforhodamine B assay
MDA-MB-231 [20] = experiment: Growth inhibition of human MDA-MB-231 cells by sulforhodamine B assay
[21] = read-out: LC50 (the source's name)
[22] = read-out: pLC50 (the source's name) (converted)

SMILES: C/C=C(/C)C(=O)O[C@@H]1CC(C)(C)C[C@H]2C3=CC[C@@H]4[C@@]5(C)CC[C@H](O)C(C)(C)[C@@H]5CC[C@@]4(C)[C@]3(C)CC[C@@]12C(=O)O [Reduced Lantadene A]
- growth at 1 µM (HCT-15): 82%
- GI50 (IGROV-1; read-out: GI50): 2.32 µM
- CC50 (IGROV-1; [21]): 9.24 µM
- TGI (IGROV-1; read-out: TGI): 4.63 µM
- GI50 (IGROV-1; read-out: pGI50 (converted)): 2.29 µM
- CC50 (IGROV-1; [22]): 9.33 µM
- TGI (IGROV-1; read-out: pTGI (converted)): 4.68 µM
- growth at 1 µM (SF-295): 81%
- growth at 0.1 µM (NCI-H226): 94%
- growth at 0.01 µM (786-0 [1]): 101%
- growth at 0.1 µM (Malme-3M): 94%
- growth at 1 µM (UO-31 [2]): 89%
- GI50 (SR; read-out: GI50): 2.14 µM
- CC50 (SR; [21]): > 100 µM
- TGI (SR; read-out: TGI): 5.63 µM
- GI50 (SR; read-out: pGI50 (converted)): 2.14 µM
- CC50 (SR; [22]): > 100 µM
- TGI (SR; read-out: pTGI (converted)): 5.62 µM
- growth at 0.1 µM (SF-268): 106%
- growth at 0.1 µM (SK-OV-3): 102%
- growth at 0.01 µM (OVCAR-5): 100%
- growth at 0.01 µM (UO-31 [3]): 93%
- growth at 0.1 µM (PC-3 [4]): 88%
- growth at 0.01 µM (MDA-MB-231 [5]): 99%
- growth at 100 µM [6]: -30%
- GI50 (U-251 [7]; read-out: GI50): 1.59 µM
- CC50 (U-251 [7]; [21]): 6.6 µM
- TGI (U-251 [7]; read-out: TGI): 3.24 µM
- GI50 (U-251 [7]; read-out: pGI50 (converted)): 1.58 µM
- CC50 (U-251 [7]; [22]): 6.61 µM
- TGI (U-251 [7]; read-out: pTGI (converted)): 3.24 µM
- growth at 0.1 µM (K562 [8]): 105%
- GI50 (PC-3 [9]; read-out: GI50): 1.34 µM
- CC50 (PC-3 [9]; [21]): 6.01 µM
- TGI (PC-3 [9]; read-out: TGI): 2.84 µM
- GI50 (PC-3 [9]; read-out: pGI50 (converted)): 1.35 µM
- CC50 (PC-3 [9]; [22]): 6.03 µM
- TGI (PC-3 [9]; read-out: pTGI (converted)): 2.82 µM
- growth at 1 µM (K562 [10]): 85%
- growth at 0.01 µM [11]: 99%
- growth at 0.1 µM (SF-539): 103%
- growth at 100 µM (A498): -74%
- growth at 0.01 µM [12]: 102%
- growth at 0.01 µM (MDA-MB-468): 93%
- growth at 0.1 µM (MOLT-4): 98%
- growth at 100 µM (OVCAR-8): -39%
- growth at 1 µM (U-251 [13]): 83%
- growth at 100 µM (OVCAR-3): -48%
- growth at 1 µM (HOP-92): 73%
- growth at 1 µM (SW-620): 90%
- growth at 1 µM (NCI-H522 [14]): 93%
- growth at 0.1 µM (NCI-H322M [15]): 98%
- growth at 0.1 µM (RXF 393): 95%
- growth at 1 µM (786-0 [16]): 97%
- growth at 1 µM (MCF7): 88%
- growth at 0.01 µM (HCT-116): 97%
- growth at 1 µM (DU-145): 109%
- growth at 1 µM (NCI-H322M [17]): 93%
- growth at 0.01 µM (NCI-H522 [18]): 102%
- growth at 0.1 µM (T47D): 104%
- GI50 (786-0 [19]; read-out: GI50): 1.81 µM
- CC50 (786-0 [19]; [21]): 6.44 µM
- TGI (786-0 [19]; read-out: TGI): 3.41 µM
- GI50 (786-0 [19]; read-out: pGI50 (converted)): 1.82 µM
- CC50 (786-0 [19]; [22]): 6.46 µM
- TGI (786-0 [19]; read-out: pTGI (converted)): 3.39 µM
- GI50 (MDA-MB-231 [20]; read-out: GI50): 1.65 µM
- CC50 (MDA-MB-231 [20]; [21]): 5.98 µM
- TGI (MDA-MB-231 [20]; read-out: TGI): 3.14 µM
- GI50 (MDA-MB-231 [20]; read-out: pGI50 (converted)): 1.66 µM
- CC50 (MDA-MB-231 [20]; [22]): 6.03 µM
- TGI (MDA-MB-231 [20]; read-out: pTGI (converted)): 3.16 µM
